Key:
[1] = test system: differentiated L6-myotubes; test: cAMP production relative to isoprenaline (Biological example 2 of WO 2019/053427); type: cell-based; details: 0.25 h, compound at 10 μM, activity relative to isoproterenol at 10 μM
Description: For example, the level of cAMP production induced by a given compound can be determined by reference to the amount induced by a defined concentration of that compound relative to that induced by the same concentration of a reference compound, such as isoprenaline, using techniques known to those skilled in the art (e.g. following the protocol as described in the biological examples provided in WO 2019/053427, i.e. in cells, such as differentiated L6-myotubes, having been stimulated with isoprenaline or the compound with a final concentration of 1×10^−5 M, for 15 min in stimulation buffer, such as HBSS supplemented with 1% BSA, 5 mM HEPES and 1 mM IBMX, at pH 7.4).
(§1) Compounds described in publications referenced and incorporated herein were screened in accordance with the procedures outlined in Biological example 1 and Biological example 2 of WO 2019/053427.

[2] = test system: differentiated L6-myotubes; test: Glucose uptake screen (Biological example 1 of WO 2019/053427); type: cell-based; details: compound at 10 μM, activity relative to isoproterenol at 10 μM, read-out: Biological example 1 of WO 2019/053427 (GU)
Experimental: as §1
L6-myoblasts were grown in Dulbecco's Modified Eagle's Medium (DMEM) containing 1 g/L glucose supplemented with 10% fetal bovine serum (FBS), 2 mM L-glutamine, 50 U/mL penicillin, […] streptomycin and 10 mM HEPES. Cells were plated at 1x 10^5 cells per mL in 24-well plates. After reaching 90% confluence the cells were grown in medium containing 2% FBS for 7 days where upon cells differentiated into myotubes. The differentiated L6-myotubes were serum-starved overnight in medium containing 0.5% fatty-acid free BSA and stimulated with Compound A at a final concentration of 1×10^−5 M in the presence of the selective β2-adrenergic receptor antagonist ICI-118551. After 1 h 40 min the cells were washed with warm, glucose free medium twice and another portion of agonist was added to the glucose free medium. After another 20 min of incubation the cells were exposed to 50 nM ^3H-2-deoxyglucose for 10 min before washed in ice cold glucose free medium three times and lysed in 400 µl/well 0.2 M NaOH for 1 h at 60° C. The cell lysate was mixed with 4 ml scintillation buffer (Emulsifier Safe, Perkin Elmer) and the radioactivity was detected in a P-counter (Tri-Carb 4810TR, Perkin Elmer).

| SMILES | Emax at 10 µM [1] [%] | Emax at 10 µM [2] [%] |
| --- | --- | --- |
| O[C@@H](c1cccc(F)c1)[C@H]1CCC2(CC2)N1 [Compound 171, (S)-{(R)-4-aza-5-spiro[2.4]heptyl}(m-fluorophenyl)methanol] | < 25 | 25 to 50 |
| O[C@H](c1cncc(F)c1)C12CCC(CCCc3ccccc3)(CC1)N2 [Compound 532, (R)-(5-fluoro-3-pyridyl){4-(3-phenylpropyl)-7-azabicyclo[2.2.1]hept-1-yl}methanol] | 25 to 50 | 50 to 75 |
| CC1(C)CCC[C@@H]([C@H](O)c2ccccc2F)N1 [Compound 193, (R)-[(S)-6,6-dimethyl-2-piperidyl](o-fluorophenyl)methanol] | 25 to 50 | > 75 |
| CC(=O)N[C@H]1CC[C@@H](CC(C)(C)NC[C@H](O)c2cccnc2C)CC1 [Compound 436, N-[(1S,4s)-4-{2-[(R)-2-hydroxy-2-(2-methyl-3-pyridyl)ethylamino]-2-methylpropyl}cyclohexyl]acetamide] | < 25 | 50 to 75 |
| COc1ccc(CCC23CCC([C@H](O)c4cccc(F)c4)(CC2)N3)cc1 [Compound 540, (R)-(m-fluorophenyl){4-[2-(p-methoxyphenyl)ethyl]-7-azabicyclo[2.2.1]hept-1-yl}methanol] | 25 to 50 | 50 to 75 |
| O[C@H](c1cccc(F)c1)[C@H]1CC[C@H](Cc2ccc(Cl)cc2)N1 [Compound 393, (R)-{(2R,5R)-5-[(p-chlorophenyl)methyl]-2-pyrrolidinyl}(m-fluorophenyl)methanol] | < 25 | > 75 |
| CO[C@H]1CC[C@H](C[C@@H]2CC[C@H]([C@H](O)c3ccccc3F)N2)CC1 [Compound 337, (R)-[(2R,5S)-5-{[(1r,4S)-4-methoxycyclohexyl]methyl}-2-pyrrolidinyl](o-fluorophenyl)methanol] | < 25 | > 75 |
| CC1(C)C[C@@H]([C@@H](O)c2ccccc2F)N1 [Compound 205, (S)-[(S)-4,4-dimethyl-2-azetidinyl](o-fluorophenyl)methanol] | < 25 | 25 to 50 |
| O[C@H](c1cncc(F)c1)C12CCC(COCc3ccc(F)cc3)(CC1)N2 [Compound 443, (R)-(4-{[(p-fluorophenyl)methoxy]methyl}-7-azabicyclo[2.2.1]hept-1-yl)(5-fluoro-3-pyridyl)methanol] | 25 to 50 | > 75 |
| CCC[C@H]1CC[C@H]([C@H](O)c2cccc(O)c2)N1 [Compound 125, m-{(R)-[(2R,5S)-5-propyl-2-pyrrolidinyl]hydroxymeth-yl}phenol] | < 25 | 50 to 75 |
| CC(C)(C[C@H]1CC[C@@H](NC(=O)C(C)(C)C)CC1)NC[C@H](O)c1cccc(F)c1 [Compound 455, N-[(1S,4s)-4-{2-[(R)-2-(m-fluorophenyl)-2-hydroxyethylamino]-2-methylpropyl}cyclohexyl]2,2-dimethylpropionamide] | < 25 | 50 to 75 |
| COc1ccc(C[C@@H]2CC[C@H]([C@@H](O)c3cccc(F)c3)N2)cc1 [Compound 372, (S)-{(2R,5S)-5-[(p-methoxyphenyl)methyl]-2-pyrrolidinyl}(m-fluorophenyl)methanol] | < 25 | > 75 |
| CCC[C@@H]1CCC[C@@H]([C@H](O)c2cccc(F)c2)N1 [Compound 116, (R)-[(2S,6R)-6-propyl-2-piperidyl](m-fluorophenyl)methanol] | < 25 | 25 to 50 |
| CC1(C)CC[C@H]([C@@H](O)c2cncc(O)c2)N1 [Compound 166, 5-{(S)-[(R)-5,5-dimethyl-2-pyrrolidinyl]hydroxymeth-yl}-3-pyridinol] | < 25 | 25 to 50 |
| CCC[C@H]1CC[C@@H]([C@H](O)c2cccc(F)c2)N1 [Compound 130] | < 25 | 25 to 50 |
| CC12CCC([C@@H](O)c3ccccc3F)(CC1)N2 [Compound 180, (S)-(o-fluorophenyl)(4-methyl-7-azabicyclo[2.2.1]hept-1-yl)methanol] | < 25 | > 75 |
| CCC[C@@H]1CCC[C@H]([C@H](O)c2cccc(O)c2)N1 [Compound 45, (R)-[(2R,6R)-6-propyl-2-piperidyl](m-hydroxyphenyl)methanol] | < 25 | > 75 |
| CCCCNCC(O)c1ccc(F)c(NC(C)=O)c1F (stereo not drawn) [Compound 42, N-{3-[2-(butylamino)-1-hydroxyethyl]-2,6-difluorophenyl}acetamide] | < 25 | 25 to 50 |
| CC12CC(C1)[C@H]([C@H](O)c1ccccc1F)N2 [Compound 210, (R)-{(R)-1-methyl-2-azabicyclo[2.1.1]hex-3-yl}(o-fluorophenyl)methanol] | > 75 | > 75 |
| CC(C)(NC[C@H](O)c1cncc(F)c1)[C@H]1CC[C@H](N)CC1 [Compound 344, (R)-1-(5-fluoro-3-pyridyl)-2-{1-methyl-1-[(1r,4R)-4-aminocyclohexyl]ethylamino}-1-ethanol] | < 25 | < 25 |
| CCCCNCC(O)c1ccc(F)c(F)c1 (stereo not drawn) [Compound 56, 2-(butylamino)-1-(3,4-difluorophenyl)-1-ethanol] | < 25 | 50 to 75 |
| C[C@H]1CC[C@@H]([C@H](O)c2cccc(O)c2)N1 (racemic) [Compound 40, Racemic mixture of m-{(R)-[(2S,5S)-5-methyl-2-pyrrolidinyl]hydroxymeth-yl}phenol and m-{(S)-[(2R,5R)-5-methyl-2-pyrrolidinyl]hydroxymeth-yl}phenol] | < 25 | 50 to 75 |
| CCCCNC(C)C(O)c1ccc(O)cc1 (stereo not drawn) [Compound 12, 2-(butylamino)-1-(p-hydroxyphenyl)-1-propanol] | < 25 | 50 to 75 |
| CC12CC(C1)[C@H]([C@H](O)c1cccc(N)c1F)N2 [Compound 241, (R)-{(R)-1-methyl-2-azabicyclo[2.1.1]hex-3-yl}(3-amino-2-fluorophenyl)methanol] | < 25 | > 75 |
| O[C@H](c1cncc(F)c1)[C@H]1CC[C@H](Cc2ccc(Cl)cc2)N1 [Compound 406, (R)-{(2R,5R)-5-[(p-chlorophenyl)methyl]-2-pyrrolidinyl}(5-fluoro-3-pyridyl)methanol] | < 25 | > 75 |
| CC(C)(C)NC[C@H](O)c1ncccc1Cl [Compound 146, (S)-2-(tert-butylamino)-1-(3-chloro-2-pyridyl)-1-ethanol] | < 25 | 25 to 50 |
| CCCCNC[C@H](O)c1cccc(O)c1F [Compound 87, (R)-2-(butylamino)-1-(2-fluoro-3-hydroxyphenyl)-1-ethanol] | 25 to 50 | > 75 |
| CCOC(=O)CO[C@H]1CC[C@H](C(C)(C)NC[C@H](O)c2cncc(F)c2)CC1 [Compound 409, ethyl [(1R,4r)-4-{1-[(R)-2-(5-fluoro-3-pyridyl)-2-hydroxyethylamino]-1-methylethyl}cyclohexyloxy]acetate] | < 25 | > 75 |
| Oc1ccc(C(O)CNCCCC(F)(F)F)cc1 (stereo not drawn) [Compound 31, 1-(p-hydroxyphenyl)-2-(4,4,4-trifluorobutylamino)-1-ethanol] | – | 50 to 75 |

Reference: patent US20260256751A1, “COMBINATION OF BETA-2-ADRENERGIC RECEPTOR AGONISTS AND GLP-1 RECEPTOR AGONISTS FOR USE IN TREATING HYPERGLYCAEMIA” (ATROGI AB, priority 2023, published 2026)
